Test results from publication PMC13600255 (Journal of the American Chemical Society, 2025).
Values joined by “and” are separate entries in the source; they are usually repeats but may differ in a detail not shown here. Identical values can stand only once. “Also recorded” adds a separate entry of the source. Like-named read-outs stand apart in the source and are kept apart here.

Assays:
[1] = biological target: T1, hVMAT2 (Homo sapiens, UniProt Q05940); experiment: FFN206 fluorescent substrate uptake inhibition in hVMAT2-HEK cells; type: cell-based
[2] = biological target: hDAT (Homo sapiens, UniProt Q01959); experiment: APP+ fluorescent substrate uptake inhibition in hDAT-HEK cells; type: cell-based; settings: read-out: IC50, hDAT
[3] = biological target: T2, hOCT2 (Homo sapiens, UniProt O15244); experiment: ASP+ fluorescent substrate uptake inhibition at OCT2; type: cell-based; settings: read-out: IC50, hOCT2; ASP+ fluorescent substrate
T2 sequence (O15244 1-555): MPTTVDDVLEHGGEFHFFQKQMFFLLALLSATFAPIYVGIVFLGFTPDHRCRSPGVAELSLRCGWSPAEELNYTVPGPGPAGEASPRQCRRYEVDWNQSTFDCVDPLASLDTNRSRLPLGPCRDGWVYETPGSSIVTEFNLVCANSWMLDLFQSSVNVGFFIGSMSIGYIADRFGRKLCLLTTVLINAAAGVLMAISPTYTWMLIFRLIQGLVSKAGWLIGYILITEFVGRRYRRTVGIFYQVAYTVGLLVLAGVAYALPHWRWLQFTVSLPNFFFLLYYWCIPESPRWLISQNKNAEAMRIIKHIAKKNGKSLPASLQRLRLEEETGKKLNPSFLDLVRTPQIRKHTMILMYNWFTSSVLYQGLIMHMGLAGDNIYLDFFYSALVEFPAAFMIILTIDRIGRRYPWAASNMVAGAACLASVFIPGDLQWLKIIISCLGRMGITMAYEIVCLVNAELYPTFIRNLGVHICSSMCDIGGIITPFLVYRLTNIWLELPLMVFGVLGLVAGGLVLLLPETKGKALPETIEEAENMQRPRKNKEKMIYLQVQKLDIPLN

[4] = system: other uptake 2 transporters (OCT1, OCT3, PMAT); experiment: Fluorescent substrate uptake inhibition at the other uptake 2 transporters; type: cell-based
[5] = biological target: T3, rat SERT (rSERT) (Rattus norvegicus, UniProt P31652); experiment: [3H]5-HT uptake inhibition in rat brain synaptosomes; type: biochemical; settings: rat brain synaptosomes
[6] = biological target: rat VMAT2 (rVMAT2) (Rattus norvegicus, UniProt Q01827); experiment: [3H]5-HT uptake inhibition in rat brain synaptic vesicular fraction; type: biochemical; settings: read-out: Uptake Inhibition at VMAT2 IC50, [3H]5-HT (rVMAT2); rat brain synaptic vesicles
[7] = biological target: SERT (Rattus norvegicus, UniProt P31652); experiment: [3H]5-HT release from rat brain synaptosomes via SERT; type: biochemical; settings: rat brain synaptosomes; for [3H]5-HT Release % Emax via SERT / [3H]5-HT Release EC50 ± SD via SERT: n = 3; for [3H]5-HT Release EC50 ± SD via SERT: active releaser: EC50 < 10 μM and Emax > 30%
[8] = biological target: VMAT2 (Rattus norvegicus, UniProt Q01827); experiment: [3H]5-HT release from rat brain synaptic vesicles via VMAT2; type: biochemical; settings: for [3H]5-HT Release % Emax via VMAT2: rat brain vesicular fraction, 5-HT control set as Emax = 100%
[9] = biological target: rVMAT2 (Rattus norvegicus, UniProt Q01827); experiment: [3H]DTBZ binding competition in rat brain synaptic vesicles
[10] = biological target: SERT (Mus musculus, UniProt Q60857); experiment: SERTlight two-photon imaging of SERT function in acute mouse brain slices; type: cell-based; settings: for Effect on SERTlight labeling of 5-HT axons: 2 μM for 30 minutes, SERTlight 10 μM, SNpr, DS, SSp2/3
[11] = biological target: mouse VMAT2 (mVMAT2) (Mus musculus, UniProt Q8BRU6); experiment: FFN200 two-photon imaging of VMAT2 function in acute mouse brain slices; type: cell-based; settings: for Effect on FFN200 uptake / punctate labeling: 2 μM for 30 minutes, FFN200 10 μM, dorsal striatum
[12] = system: mice; experiment: Catalepsy bar test in mice; type: in vivo, mouse; settings: mice, s.c.
[13] = system: mice; experiment: Open field locomotor activity test in mice; type: in vivo, mouse; settings: s.c.
[14] = system: mice; experiment: Loss of righting reflex; type: in vivo, mouse; settings: high doses
[15] = Pharmacokinetics in mice, estimated free drug concentration in brain; type: in vivo, mouse
[16] = Lipophilicity; type: physicochemical; settings: noribogaine versus ibogamine
[17] = biological target: T3, rat SERT (rSERT); settings: cited from earlier work
[18] = biological target: T1, hVMAT2; settings: read-out: IC50, VMAT2 binding, cortex; human brain cortex; cited from earlier work
[19] = system: humans; settings: top dose of 180 mg, p.o.; cited from earlier work
[20] = system: SERT; settings: SERT-transfected cells; cited from earlier work
[21] = biological target: T4, MAO A (Homo sapiens, UniProt P21397); experiment: MAO A activity; type: biochemical; settings: Figure S16
T4 sequence (P21397 1-527): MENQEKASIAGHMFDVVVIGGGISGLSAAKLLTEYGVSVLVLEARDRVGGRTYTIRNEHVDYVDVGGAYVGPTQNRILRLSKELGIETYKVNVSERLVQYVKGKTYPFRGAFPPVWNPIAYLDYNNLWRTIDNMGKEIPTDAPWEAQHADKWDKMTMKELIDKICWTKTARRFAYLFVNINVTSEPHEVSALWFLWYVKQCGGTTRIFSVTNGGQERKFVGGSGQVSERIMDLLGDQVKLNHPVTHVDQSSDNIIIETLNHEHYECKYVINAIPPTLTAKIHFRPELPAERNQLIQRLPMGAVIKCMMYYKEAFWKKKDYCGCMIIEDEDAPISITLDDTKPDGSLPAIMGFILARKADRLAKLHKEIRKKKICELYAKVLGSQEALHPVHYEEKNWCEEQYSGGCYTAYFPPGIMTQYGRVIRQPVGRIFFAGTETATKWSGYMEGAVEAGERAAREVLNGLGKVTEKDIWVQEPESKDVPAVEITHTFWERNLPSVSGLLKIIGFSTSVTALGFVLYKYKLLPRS

[22] = system: humans; settings: after a single treatment; cited from earlier work

mouse VMAT2 (mVMAT2), sequence (Q8BRU6 whole entry): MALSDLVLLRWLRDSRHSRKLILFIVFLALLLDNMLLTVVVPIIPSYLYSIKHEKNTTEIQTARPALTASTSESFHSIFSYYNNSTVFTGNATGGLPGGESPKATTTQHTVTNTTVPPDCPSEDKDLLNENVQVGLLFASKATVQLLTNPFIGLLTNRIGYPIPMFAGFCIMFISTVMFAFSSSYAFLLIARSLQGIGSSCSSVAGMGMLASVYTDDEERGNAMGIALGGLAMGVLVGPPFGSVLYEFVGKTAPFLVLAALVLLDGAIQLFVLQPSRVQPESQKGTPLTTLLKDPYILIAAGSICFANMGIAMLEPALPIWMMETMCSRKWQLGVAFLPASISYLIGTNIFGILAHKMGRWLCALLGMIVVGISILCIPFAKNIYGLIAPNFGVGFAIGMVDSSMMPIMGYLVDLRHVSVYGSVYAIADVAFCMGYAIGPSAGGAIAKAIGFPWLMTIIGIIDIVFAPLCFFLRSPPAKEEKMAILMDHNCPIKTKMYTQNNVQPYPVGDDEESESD
VMAT2, sequence (Q01827 whole entry): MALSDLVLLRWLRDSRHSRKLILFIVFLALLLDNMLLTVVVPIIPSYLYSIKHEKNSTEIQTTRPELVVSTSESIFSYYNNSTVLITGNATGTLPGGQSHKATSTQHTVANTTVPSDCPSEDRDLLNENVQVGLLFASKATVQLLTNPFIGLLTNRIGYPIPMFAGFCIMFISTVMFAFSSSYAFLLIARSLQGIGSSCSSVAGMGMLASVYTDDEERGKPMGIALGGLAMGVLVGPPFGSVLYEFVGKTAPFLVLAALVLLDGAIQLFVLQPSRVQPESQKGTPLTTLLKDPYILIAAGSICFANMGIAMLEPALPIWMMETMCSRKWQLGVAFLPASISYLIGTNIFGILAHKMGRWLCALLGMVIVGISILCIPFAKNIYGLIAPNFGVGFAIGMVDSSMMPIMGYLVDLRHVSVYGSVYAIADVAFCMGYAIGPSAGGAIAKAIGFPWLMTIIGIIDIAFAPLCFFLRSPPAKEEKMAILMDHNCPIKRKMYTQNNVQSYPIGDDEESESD
SERT (Mus musculus, UniProt Q60857), sequence (Q60857 whole entry): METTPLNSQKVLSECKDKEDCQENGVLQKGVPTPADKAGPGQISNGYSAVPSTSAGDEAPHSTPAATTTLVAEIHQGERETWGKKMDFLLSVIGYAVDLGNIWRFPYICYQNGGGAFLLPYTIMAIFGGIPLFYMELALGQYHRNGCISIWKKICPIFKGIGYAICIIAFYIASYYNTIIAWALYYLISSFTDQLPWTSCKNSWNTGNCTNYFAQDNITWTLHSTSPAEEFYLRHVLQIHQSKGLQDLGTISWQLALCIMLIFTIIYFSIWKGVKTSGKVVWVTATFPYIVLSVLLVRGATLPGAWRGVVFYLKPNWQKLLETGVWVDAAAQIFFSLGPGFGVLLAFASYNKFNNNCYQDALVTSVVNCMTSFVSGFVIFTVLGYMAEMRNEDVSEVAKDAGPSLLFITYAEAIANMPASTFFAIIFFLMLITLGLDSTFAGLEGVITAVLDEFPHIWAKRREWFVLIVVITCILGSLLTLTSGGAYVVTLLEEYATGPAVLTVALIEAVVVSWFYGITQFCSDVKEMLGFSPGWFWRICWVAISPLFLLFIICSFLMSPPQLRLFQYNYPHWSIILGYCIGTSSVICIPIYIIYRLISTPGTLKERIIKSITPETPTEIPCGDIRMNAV
T3 sequence (P31652 whole entry): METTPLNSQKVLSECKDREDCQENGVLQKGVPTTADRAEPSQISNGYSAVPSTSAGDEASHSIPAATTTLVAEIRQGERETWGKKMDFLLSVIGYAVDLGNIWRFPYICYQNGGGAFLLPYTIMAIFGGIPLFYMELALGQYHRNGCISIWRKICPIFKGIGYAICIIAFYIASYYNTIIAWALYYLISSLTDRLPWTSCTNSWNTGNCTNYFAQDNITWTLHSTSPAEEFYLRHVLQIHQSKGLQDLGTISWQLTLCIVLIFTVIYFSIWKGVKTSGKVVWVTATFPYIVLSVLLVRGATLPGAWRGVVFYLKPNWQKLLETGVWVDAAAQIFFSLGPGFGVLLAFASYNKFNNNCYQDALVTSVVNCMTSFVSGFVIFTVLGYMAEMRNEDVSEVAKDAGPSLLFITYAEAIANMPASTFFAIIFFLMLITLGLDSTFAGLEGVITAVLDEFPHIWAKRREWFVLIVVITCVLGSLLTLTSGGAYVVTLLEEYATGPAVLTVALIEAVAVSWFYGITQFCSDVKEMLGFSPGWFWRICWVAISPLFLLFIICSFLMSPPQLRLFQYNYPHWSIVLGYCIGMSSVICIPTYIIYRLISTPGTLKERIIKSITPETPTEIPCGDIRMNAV
SERT (Rattus norvegicus, UniProt P31652), sequence (P31652 whole entry): as above
T1 sequence (Q05940 whole entry): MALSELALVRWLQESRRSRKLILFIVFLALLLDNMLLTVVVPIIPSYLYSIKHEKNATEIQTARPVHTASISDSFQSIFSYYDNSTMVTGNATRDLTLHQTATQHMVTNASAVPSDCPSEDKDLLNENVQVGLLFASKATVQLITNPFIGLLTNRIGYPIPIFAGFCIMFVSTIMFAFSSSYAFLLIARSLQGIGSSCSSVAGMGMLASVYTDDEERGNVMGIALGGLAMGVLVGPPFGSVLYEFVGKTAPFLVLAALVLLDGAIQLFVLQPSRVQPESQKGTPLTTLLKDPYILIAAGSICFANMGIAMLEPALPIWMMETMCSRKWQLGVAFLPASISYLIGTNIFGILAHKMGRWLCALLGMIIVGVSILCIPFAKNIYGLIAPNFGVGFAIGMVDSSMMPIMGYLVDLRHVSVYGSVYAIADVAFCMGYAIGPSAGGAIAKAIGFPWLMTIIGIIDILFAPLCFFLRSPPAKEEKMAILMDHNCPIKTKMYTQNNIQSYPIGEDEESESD
rVMAT2, sequence (Q01827 whole entry): as the sequence (Q01827 whole entry) above
rat VMAT2 (rVMAT2), sequence (Q01827 whole entry): as above
hDAT, sequence (Q01959 whole entry): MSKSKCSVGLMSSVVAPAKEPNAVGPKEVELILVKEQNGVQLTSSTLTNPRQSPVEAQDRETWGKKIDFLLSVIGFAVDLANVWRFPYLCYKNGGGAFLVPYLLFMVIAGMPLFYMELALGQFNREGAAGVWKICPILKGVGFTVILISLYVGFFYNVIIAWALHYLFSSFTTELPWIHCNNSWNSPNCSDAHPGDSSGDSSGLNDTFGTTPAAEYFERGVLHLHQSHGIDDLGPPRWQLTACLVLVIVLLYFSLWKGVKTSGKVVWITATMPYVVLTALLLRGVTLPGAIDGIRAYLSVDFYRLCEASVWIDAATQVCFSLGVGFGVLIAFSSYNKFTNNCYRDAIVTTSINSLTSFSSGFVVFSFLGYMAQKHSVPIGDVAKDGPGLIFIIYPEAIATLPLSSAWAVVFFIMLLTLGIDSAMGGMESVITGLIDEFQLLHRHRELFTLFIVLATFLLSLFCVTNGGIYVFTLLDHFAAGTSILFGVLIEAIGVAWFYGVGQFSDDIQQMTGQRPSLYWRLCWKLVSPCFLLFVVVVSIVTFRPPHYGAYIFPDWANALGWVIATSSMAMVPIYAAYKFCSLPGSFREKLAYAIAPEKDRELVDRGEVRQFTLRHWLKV

CC[C@H]1C[C@H]2C[C@H]3c4[nH]c5ccc(O)cc5c4CCN(C2)[C@@H]13 [noribogaine]
IC50 ([1]; read-out: IC50, hVMAT2 (uptake inhibition, FFN206), hVMAT2-HEK cells, fluorescent substrate FFN206, n = 4): 570 nM | IC50 [2]: 6.76 µM | IC50 [3]: 6.18 µM | Inhibition at the other uptake 2 transporters examined [4]: no inhibition below 10 μM | IC50 ([5]; read-out: Uptake Inhibition at SERT IC50, [3H]5-HT (rSERT)): 326 nM | IC50 ([5]; read-out: [3H]5-HT Uptake Inhibition IC50 ± SD, SERT, n = 3): 326 ± 47.6 nM | IC50 [6]: 1310 nM | [3H]5-HT release from preloaded synaptosomes (qualitative) [7]: No [^3H]5-HT release was observed | [3H]5-HT Release % Emax via SERT [7]: < 30% | [3H]5-HT Release EC50 ± SD via SERT [7]: inactive | [3H]5-HT Release % Emax via VMAT2 [8]: 50% | EC50 ([8]; read-out: [3H]5-HT Release EC50 ± SD via VMAT2): 6.48 µM | [3H]DTBZ displacement [9]: < 20% | IC50 ([9]; read-out: IC50, rVMAT2 ([3H]DTBZ competition)): > 10 µM | Effect on somatodendritic SERTlight labeling in dorsal raphe ([10]; 2 μM): showed no effect | Effect on SERTlight labeling of 5-HT axons [10]: ablated SERTlight probe uptake; also recorded: completely blocked the SERTlight signal; also recorded: completely inhibited the axonal SERT | Effect on somatodendritic SERTlight labeling in dorsal raphe ([10]; 10 μM): showed no effect | Effect on somatodendritic SERTlight labeling in dorsal raphe ([10]; 30 μM): no apparent effect | Effect on somatodendritic SERTlight labeling in dorsal raphe ([10]; 100 μM): clear inhibition | Inhibitory potency on SERTlight staining in dorsal raphe, dose-response ([10]; 10, 30, 50, and 100 μM): weak inhibitory potency | Effect on FFN200 uptake / punctate labeling [11]: strong inhibitory effects; also recorded: completely inhibited FFN200 uptake | IC50 ([11]; read-out: IC50 FFN200 uptake in acute mouse slices, number of puncta per image, dose-response): 160 nM | Catalepsy in bar test ([12]; high doses 30, 50 and 80 mg/kg): did not induce catalepsy; also recorded: did not show any catalepsy | Catalepsy in bar test ([12]; dose-response): does not result in catalepsy | Locomotion in open field test ([13]; 30 mg/kg): strongly suppressed | Locomotor activity / sedation in open field test ([13]; dose-response): diminished ambulatory behavior | Loss of righting reflex (LORR) [14]: did not observe a loss of righting reflex | Cmax, estimated free brain concentration ([15]; mice, 10 mg/kg, s.c.): ~ 6.6 μM | Cmax, estimated free drug in the brain ([15]; mice, 50 mg/kg, s.c.): 31 µM and > 20 µM | Concentration of free drug in the brain over plasma ([15]; rodents (rats ref 11 and mice, Figure S11)): > 4 fold | Less lipophilic than ibogamine by [16]: 1.75 log D units | IC50 ([17]; read-out: IC50, rSERT reported previously in rat synaptosomes): 330 nM | IC50 [18]: 5 µM | Dose-limiting cardiac effect [19]: cardiac QT interval prolongation | Partial [3H]5-HT release Emax [20]: ~ 30%

ibogaine
Selectivity hVMAT2 over hSERT ([1]; ratio of IC50 values, cell-based fluorometry): seven-fold more potent at VMAT2 | Inhibition at the other uptake 2 transporters examined [4]: no inhibition below 10 μM | [3H]5-HT release from preloaded synaptosomes (qualitative) [7]: No [^3H]5-HT release was observed | [3H]5-HT Release % Emax via SERT [7]: < 30% | [3H]5-HT Release EC50 ± SD via SERT [7]: inactive | Concentration at which [3H]5-HT release exceeds Emax of 30% ([8]; rat brain synaptic vesicles): > 10 µM | [3H]5-HT Release % Emax via VMAT2 [8]: < 30% | Effect on SERTlight labeling of 5-HT axons [10]: did not alter probe uptake; also recorded: had no effect on SERTlight labeling | Effect on FFN200 uptake / punctate labeling [11]: strong inhibitory effects; also recorded: completely inhibited FFN200 uptake | Activity at MAO A [21]: no activity | Ratio of binding to uptake inhibitory constants at SERT [17]: ~ 1 | Remission [22]: 80%
